Reference: publication PMC13110364, “Design, Synthesis, and Biological Evaluation of Novel Triazine‐Based Dual Histone Deacetylase/phosphatidylinositol 3‐kinase Inhibitors for Breast Cancer Therapy” (Chemmedchem, 2026)

How the values were obtained:
PI3Kα = PI3Kα (Homo sapiens, UniProt P42336); design: method as in earlier work; conditions: cited from earlier work
HDAC = tested on: HDAC; design: method as in earlier work; conditions: cited from earlier work
HDAC9 = tested on: HDAC9; design: method as in PMID 22693356; conditions: cited from earlier work
[1] = tested on: JIMT1 breast cancer cells; assay: MTS cell viability assay, JIMT1; assay type: cell-based; conditions: Homo sapiens, JIMT-1, 72 h treatment
Experimental: (§1) The cell viability effects of compounds 5a–5f were assessed in LY2, JIMT1, and MDA‐MB‐231 breast cancer cell lines using the 3‐(4,5‐dimethylthiazol‐2‐yl)‐5‐(3‐carboxymethoxyphenyl)‐2‐(4‐sulfophenyl)‐2H‐tetrazolium (MTS) assay. The MTS assay measures metabolic viability and serves as a first‐pass screen.
(§2) JIMT‐1 (DSMZ ACC 589) and MDA‐MB‐231 (ATCC HTB‐26) breast cancer cell lines were maintained in Dulbecco's Modified Eagle Medium (DMEM) High Glucose with L‐glutamine (D5796, Sigma) supplemented with 10% fetal calf serum. MCF7‐derivative LY2 breast cancer cells were previously described (REF: PMID: 33420368). LY2 cells were cultured in phenol red‐free MEM (PRF‐MEM; 51 200‐046, Gibco) supplemented with 10% charcoal dextran‐stripped fetal calf serum (CDS‐FCS; F6765, Merck), 2 mmol/L L‐glutamine (G7513, Merck), and 10^−8 mol/L 4‐hydroxytamoxifen (4‐OHT; H7904, Merck). All cell lines were maintained at 37°C in a humidified incubator with 5% CO2 and regularly authenticated and tested for mycoplasma.
(§3) Cell viability was evaluated in response to increasing concentrations of 5a‐5f (0.3, 1, 3, 10, and 30 μM) or vehicle control (0.1% DMSO). LY2, JIMT1, and MDA‐MB‐231 cells were seeded at a density of 2,500 cells per well in 96‐well plates with a total volume of 100 μL per well. Prior to treatment, cells were serum‐deprived for 24 h. Following serum depletion, cells were treated in complete growth medium for 72 h. Cell viability was assessed using the MTS assay (G1111, Promega) according to the manufacturer's instructions. Absorbance was measured at 495 nm using a BioTek Synergy HTX Multi‐Mode Microplate Reader (Agilent). Results were normalized to the vehicle control (DMSO), and the half‐maximal inhibitory concentration (IC50) of the inhibitors was determined by nonlinear regression (curve fit) using a four‐parameter variable slope model.

LY2 breast cancer cells = assay: MTS cell viability assay, LY2; assay type: cell-based; conditions: 72 h treatment
Experimental: as §1, §2, §3

[2] = tested on: MDA‐MB‐231 triple‐negative breast cancer cell line; assay: MTS cell viability assay, MDA-MB-231; assay type: cell-based; conditions: Homo sapiens, MDA-MB-231, 72 h, MDA‐MB‐231 cells, 72 h treatment
Experimental: as §1, §2, §3

MCF‐10A cells = assay: Cell viability in nontransformed cell line MCF-10A; assay type: cell-based; conditions: Homo sapiens
Source text: Thus, further optimization will be required to improve the therapeutic index.
FIGURE 5 Dose‐dependent effects of compound treatment (5b and 5f) on nontransformed breast cell viability across MCF‐10A.

HDAC5 = tested on: HDAC5; design: method as in PMID 22693356; conditions: cited from earlier work
HDAC2 = tested on: HDAC2; design: method as in PMID 22693356; conditions: cited from earlier work
[3] = design: method as in PMID 32022441; conditions: previous studies of the authors ref 25; cited from earlier work
HDAC1 = HDAC1 (Homo sapiens, UniProt Q13547); design: method as in PMID 32022441; conditions: cited from earlier work
HDAC4 = HDAC4 (Homo sapiens, UniProt P56524); design: method as in PMID 32022441; conditions: cited from earlier work
Chain of HDAC4 (P56524 whole entry): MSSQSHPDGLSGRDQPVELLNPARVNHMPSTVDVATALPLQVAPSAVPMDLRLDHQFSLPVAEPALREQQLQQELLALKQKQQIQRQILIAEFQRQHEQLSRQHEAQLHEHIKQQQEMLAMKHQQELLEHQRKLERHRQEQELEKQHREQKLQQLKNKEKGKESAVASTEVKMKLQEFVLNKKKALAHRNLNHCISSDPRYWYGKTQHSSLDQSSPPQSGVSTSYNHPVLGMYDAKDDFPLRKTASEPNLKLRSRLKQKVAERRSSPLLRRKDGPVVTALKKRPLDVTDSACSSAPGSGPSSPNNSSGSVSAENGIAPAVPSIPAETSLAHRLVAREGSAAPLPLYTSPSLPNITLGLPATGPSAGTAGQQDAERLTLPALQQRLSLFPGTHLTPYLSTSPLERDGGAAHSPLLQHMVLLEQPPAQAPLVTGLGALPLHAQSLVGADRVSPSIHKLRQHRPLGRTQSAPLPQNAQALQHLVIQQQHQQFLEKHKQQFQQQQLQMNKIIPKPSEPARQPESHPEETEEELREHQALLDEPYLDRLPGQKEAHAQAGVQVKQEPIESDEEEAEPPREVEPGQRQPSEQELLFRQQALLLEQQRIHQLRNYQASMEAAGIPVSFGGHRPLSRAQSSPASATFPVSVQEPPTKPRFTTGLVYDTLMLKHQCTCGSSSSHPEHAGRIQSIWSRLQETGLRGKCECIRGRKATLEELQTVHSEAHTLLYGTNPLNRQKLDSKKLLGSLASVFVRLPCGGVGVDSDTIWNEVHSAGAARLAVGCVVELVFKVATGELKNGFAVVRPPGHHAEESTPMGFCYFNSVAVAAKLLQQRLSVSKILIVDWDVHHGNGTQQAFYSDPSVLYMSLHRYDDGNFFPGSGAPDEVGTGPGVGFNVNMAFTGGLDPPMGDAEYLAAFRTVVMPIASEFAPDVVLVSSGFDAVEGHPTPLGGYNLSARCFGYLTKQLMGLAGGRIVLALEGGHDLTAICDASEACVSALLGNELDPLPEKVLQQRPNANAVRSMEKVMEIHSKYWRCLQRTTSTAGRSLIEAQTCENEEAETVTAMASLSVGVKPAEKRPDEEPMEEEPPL

Chain of HDAC1 (Q13547 whole entry): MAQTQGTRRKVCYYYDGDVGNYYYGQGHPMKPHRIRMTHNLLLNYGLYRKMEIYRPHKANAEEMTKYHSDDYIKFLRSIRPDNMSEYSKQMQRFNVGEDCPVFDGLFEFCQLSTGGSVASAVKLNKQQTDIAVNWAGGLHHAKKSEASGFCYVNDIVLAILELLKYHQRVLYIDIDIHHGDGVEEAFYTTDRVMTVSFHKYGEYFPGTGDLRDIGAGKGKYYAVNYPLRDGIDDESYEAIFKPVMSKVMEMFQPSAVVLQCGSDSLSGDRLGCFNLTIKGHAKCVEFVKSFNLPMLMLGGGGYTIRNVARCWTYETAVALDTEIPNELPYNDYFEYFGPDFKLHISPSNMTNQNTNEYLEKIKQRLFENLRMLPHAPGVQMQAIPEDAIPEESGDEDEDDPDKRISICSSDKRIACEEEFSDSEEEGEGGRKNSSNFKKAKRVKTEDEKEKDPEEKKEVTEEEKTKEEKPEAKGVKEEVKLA
Chain of PI3Kα (P42336 whole entry): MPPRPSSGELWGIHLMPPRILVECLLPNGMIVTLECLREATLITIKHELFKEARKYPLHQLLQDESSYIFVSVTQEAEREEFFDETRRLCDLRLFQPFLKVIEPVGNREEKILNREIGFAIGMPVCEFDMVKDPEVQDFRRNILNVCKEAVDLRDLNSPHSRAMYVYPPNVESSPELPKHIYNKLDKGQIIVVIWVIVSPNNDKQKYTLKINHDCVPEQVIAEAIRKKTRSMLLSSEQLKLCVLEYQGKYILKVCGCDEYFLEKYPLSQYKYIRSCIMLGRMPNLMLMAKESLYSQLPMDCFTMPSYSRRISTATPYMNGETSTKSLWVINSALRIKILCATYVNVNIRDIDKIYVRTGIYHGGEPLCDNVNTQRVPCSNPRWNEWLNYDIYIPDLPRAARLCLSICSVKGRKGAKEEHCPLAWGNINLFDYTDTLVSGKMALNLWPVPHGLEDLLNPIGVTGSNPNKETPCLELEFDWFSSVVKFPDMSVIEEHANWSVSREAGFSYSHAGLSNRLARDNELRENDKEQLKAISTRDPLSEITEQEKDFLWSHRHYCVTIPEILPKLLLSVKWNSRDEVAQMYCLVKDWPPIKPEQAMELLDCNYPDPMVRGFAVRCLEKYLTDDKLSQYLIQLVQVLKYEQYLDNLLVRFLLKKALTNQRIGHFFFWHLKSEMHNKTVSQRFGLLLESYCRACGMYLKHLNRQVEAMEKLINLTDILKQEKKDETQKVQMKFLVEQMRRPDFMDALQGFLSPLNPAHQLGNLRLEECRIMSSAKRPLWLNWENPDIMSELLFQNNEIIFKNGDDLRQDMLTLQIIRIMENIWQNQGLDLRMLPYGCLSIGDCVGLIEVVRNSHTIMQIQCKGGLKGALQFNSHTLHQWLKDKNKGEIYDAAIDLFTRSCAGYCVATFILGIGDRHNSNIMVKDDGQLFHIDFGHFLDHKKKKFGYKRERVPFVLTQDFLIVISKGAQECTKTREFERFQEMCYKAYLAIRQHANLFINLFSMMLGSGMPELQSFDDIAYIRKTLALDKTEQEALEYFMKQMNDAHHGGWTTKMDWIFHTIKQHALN
Chain of PI3Kα (P27986 whole entry partner): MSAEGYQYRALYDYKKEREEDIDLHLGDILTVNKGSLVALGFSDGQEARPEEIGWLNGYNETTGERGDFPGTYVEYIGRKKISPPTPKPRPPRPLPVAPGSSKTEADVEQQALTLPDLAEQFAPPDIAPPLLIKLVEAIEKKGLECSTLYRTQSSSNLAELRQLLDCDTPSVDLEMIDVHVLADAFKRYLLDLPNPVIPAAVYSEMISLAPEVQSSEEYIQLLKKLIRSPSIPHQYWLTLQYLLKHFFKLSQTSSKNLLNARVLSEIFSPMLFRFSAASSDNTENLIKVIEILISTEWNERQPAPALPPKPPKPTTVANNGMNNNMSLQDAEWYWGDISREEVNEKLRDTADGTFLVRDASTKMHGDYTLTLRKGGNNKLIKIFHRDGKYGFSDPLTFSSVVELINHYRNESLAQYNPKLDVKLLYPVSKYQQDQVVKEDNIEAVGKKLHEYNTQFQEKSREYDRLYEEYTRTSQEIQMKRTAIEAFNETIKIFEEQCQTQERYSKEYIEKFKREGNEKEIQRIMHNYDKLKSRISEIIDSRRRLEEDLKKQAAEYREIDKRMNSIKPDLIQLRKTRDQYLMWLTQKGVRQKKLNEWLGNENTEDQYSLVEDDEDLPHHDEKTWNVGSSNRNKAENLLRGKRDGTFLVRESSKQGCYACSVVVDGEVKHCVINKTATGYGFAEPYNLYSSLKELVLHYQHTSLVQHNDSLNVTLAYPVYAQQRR

Row | IC50 [1] [µM] | IC50 (LY2 breast cancer cells) [µM] | IC50 [2] [µM] | SMILES | further results
1 |  |  |  | CNc1ccc(-c2nc(N3CCOCC3)c3sc(CN(C)c4ncc(C(=O)NO)cn4)cc3n2)cn1 [Ifupinostat, ifupinostat] | IC50 (PI3Kα): < 0.1 µM; IC50 (HDAC): 0.1 to 1 µM
2 | < 0.3 | < 0.3 | < 0.3 | COc1ccc(-c2nc(N3CCOCC3)c3sc(CN(C)c4ncc(C(=O)NO)cn4)cc3n2)cn1 [Fimepinostat, fimepinostat, reference compound] | IC50 (HDAC9): […]; IC50 (MCF‐10A cells): < 0.3 µM; IC50 (HDAC5): […]; IC50 (HDAC2): […]
3 | 8.97 ± 2.64 | 10.3 ± 3 | 13.1 ± 6.08 | Nc1ccc(-c2nc(NCc3ccc(C(=O)NO)cc3)nc(N3CCOCC3)n2)cn1 [Compound 5d, 4‐(((4‐(6‐Aminopyridin‐3‐yl)‐6‐Morpholino‐1,3,5‐Triazin‐2‐yl)Amino)Methyl)‐N‐Hydroxybenzamide] | 
4 | 15.6 ± 6.48 | 8.84 ± 3.47 | 10.4 | Nc1ncc(-c2nc(NCc3ccc(C(=O)NO)cc3)nc(N3CCOCC3)n2)cn1 [Compound 5e, 4‐(((4‐(2‐Aminopyrimidin‐5‐yl)‐6‐Morpholino‐1,3,5‐Triazin‐2‐yl)Amino)Methyl)‐N‐Hydroxybenzamide] | 
5 | 8.58 ± 0.14 | 10.9 | 5.8 ± 0.6 | O=C(NO)c1ccc(CNc2nc(-c3ccccc3)nc(N3CCOCC3)n2)cc1 [Compound 5a, N‐Hydroxy‐4‐(((4‐Morpholino‐6‐Phenyl‐1,3,5‐Triazin‐2‐yl)Amino)Methyl)Benzamide] | 
6 | 10.5 | 10 | 9.43 | O=C(NO)c1ccc(CNc2nc(-c3cccnc3)nc(N3CCOCC3)n2)cc1 [Compound 5c, N‐Hydroxy‐4‐(((4‐Morpholino‐6‐(pyridin‐3‐yl)−1,3,5‐Triazin‐2‐yl)Amino)Methyl)Benzamide] | 
7 |  |  |  | O=C(NO)c1ccc(/C=N/NC(=O)c2cc(N3CCOCC3)nc(-c3cccc(O)c3)n2)cc1 [LASSBio-2208] | stability of the NAH motif [3]: acid‐labile; IC50 (HDAC1): > 3 µM; IC50 (HDAC4): > 3 µM
